Measured values reported in patent US9572787B2, “Inhibition of renal fibrosis” (Rhode Island Hospital, priority 2011, dated 2017).
Read-outs that look alike come from different tables or passages of the source.

Legend:
[1] = system: NRK-49F cells; assay: Delayed suramin treatment of TGF-β1-pretreated renal interstitial fibroblasts; format: cell-based, rat; conditions: TGF-β1 pretreatment 24 and 48 h, then suramin 100 μM for additional 24 and 48 h with TGF-β1
Experimental: At 48 h after pretreatment with TGF-β1, expression of α-SMA and fibronectin was induced, which is similar to the in-vivo situation.

[2] = system: remnant kidney; assay: Remnant kidney model (5/6 nephrectomy), suramin treatment; format: in vivo, rat
Description: The remnant kidney model was created in male Sprague-Dawley rats that weighed 180 to 200 g (Charles River Laboratories, Wilmington, Mass.). 5/6 of normal renal mass was surgically ablated according to our previous protocols. Briefly, 20 animals underwent subtotal nephrectomy involving right subcapsular nephrectomy and infarction of approximately two-thirds of the left kidney by ligation of the posterior and one or two anterior extrarenal branches of the renal artery. In addition, 12 rats underwent a sham operation (laparotomy and manipulation of the renal pedicles). On the second week after surgery, rats were randomly divided into suramin treatment and non-treatment groups. […] 24-hour urine samples were collected in metabolic cages at day 0 and weekly for the determination of urinary levels of protein. Blood was taken weekly for the measurement of serum creatinine. At 28 days after surgery, mean blood pressure was measured, and then all animals were sacrificed and kidneys were collected for further analysis. Assessment of Renal Function and Measurement of Blood Pressure. Urinary protein concentrations were determined by using the colorimetric Lowry assay. Serum creatinine was analyzed using a creatinine kit (Sigma). Mean blood pressure was determined via a catheter inserted into the femoral artery attached to the Transonic Systems pressure transducer (Transonic Systems Inc. Ithaca, N.Y.) in anesthetized rats at the end of experiment. Immunoblot Analysis. Immunoblot analysis of NRK-49F cells and tissue samples were conducted as described previously. The densitometry analysis of immunoblot results was conducted by using NIH Image software (National Institutes of Health, Bethesda, Md.). Immunofluorescent and Immunohistochemical Staining Immunofluorescent and immunohistochemical staining was performed according to the procedure described in our previous studies. For assessment of renal fibrosis, masson trichrome staining was performed according to the protocol provided by the manufacture (Sigma, St. Louis, Mo.). The collagen tissue area (blue color) was quantitatively measured using Image Pro-Plus software (Media-Cybernetics, Silver Spring, Md., USA) by drawing a line around the perimeter of positive staining area, and the average ratio to each microscopic field (400×) was calculated and graphed.

[3] = in the body, cited from earlier work
[4] = system: obstructive kidney (UUO); assay: UUO obstructive nephropathy model, single dose of suramin immediately after ureteral ligation; format: in vivo, mouse
Experimental: UUO and Remnant Kidney Models and Suramin Treatment. The UUO model was established in male C57 back mice that weighed 20-25 g (Jackson Laboratory, Bar Harbor, Me.) as described in our previous study. Briefly, the abdominal cavity was exposed via a midline incision and the left ureter was isolated and ligated. The contralateral kidney was used as controls. […] Six mice were used in each group.
(§1) Immunoblot Analysis. Immunoblot analysis of NRK-49F cells and tissue samples were conducted as described previously. The densitometry analysis of immunoblot results was conducted by using NIH Image software (National Institutes of Health, Bethesda, Md.).
Immunofluorescent and Immunohistochemical Staining Immunofluorescent and immunohistochemical staining was performed according to the procedure described in our previous studies. For assessment of renal fibrosis, masson trichrome staining was performed according to the protocol provided by the manufacture (Sigma, St. Louis, Mo.). The collagen tissue area (blue color) was quantitatively measured using Image Pro-Plus software (Media-Cybernetics, Silver Spring, Md., USA) by drawing a line around the perimeter of positive staining area, and the average ratio to each microscopic field (400×) was calculated and graphed.
Quantitative Real-Time PCR. The procedure for quantitative qRT-PCR and the primers used for all measurements have been described previously. Briefly, total RNA from mouse kidney tissue was extracted using RNeasy Kit (QIAGEN, Valencia, Calif.). RNA (1 μg) was reverse transcribed using the AMV First Strand cDNA synthesis kit (Roche Diagnostics Corporation, Indianapolis, Ind.) and random oligodeoxynucleotide primers. Then, real time qRT-PCR amplifications were performed. Relative mRNA abundance was determined from the nanogram ratios of specific mRNA to 18S ribosomal RNA measured in the same samples, and fold change was calculated relative to the group of sham-operated mice with vehicle treatment. Template-free reactions for each pair of primers were also included as controls.

[5] = system: NRK-49F cells; assay: Serum (5% FBS)-stimulated activation and kinase phosphorylation in renal interstitial fibroblasts (immunoblot); format: cell-based, rat; conditions: 36 h, suramin 100 μM
Experimental: Cell Culture and Treatments. NRK-49F cells were cultured in Dulbecco's modified eagle's medium (DMEM) (Sigma-Aldrich, St. Louis, Mo.) containing 5% fetal bovine serum (FBS), 0.5% penicillin and streptomycin in an atmosphere of 5% CO2 and 95% air at 37° C. […] For TGF-β1 treatment, NRK-49F were starved for 24 h by incubation with 0.5% FBS containing DMEM and then exposed to TGF-β1 (0.5-2 ng/ml) for 24 h.
as §1

[6] = 10 mg/kg once per week for two weeks
[7] = 10 mg/kg once per week for two weeks, from week 2 after surgery
[8] = 1 mg/kg i.p. single dose, day 7
[9] = 5 mg/kg i.p. single dose, day 7
[10] = 10 mg/kg i.p. single dose, day 7
[11] = 20 mg/kg i.p. single dose, 21 days after UUO injury

Structure (SMILES): Cc1ccc(C(=O)Nc2ccc(S(=O)(=O)O)c3cc(S(=O)(=O)O)cc(S(=O)(=O)O)c23)cc1NC(=O)c1cccc(NC(=O)Nc2cccc(C(=O)Nc3cc(C(=O)Nc4ccc(S(=O)(=O)O)c5cc(S(=O)(=O)O)cc(S(=O)(=O)O)c45)ccc3C)c2)c1 [Suramin]
- TGF-β1-induced fibronectin expression [1]: suppressed further increase
- TGF-β1-induced α-SMA expression [1]: suppressed further increase
- de novo expression of fibronectin in the remnant kidney [2, 6]: abolished
- de novo expression of α-SMA in the remnant kidney [2, 6]: abolished
- increased expression of type 1 collagen in the remnant kidney [2, 6]: abolished
- 24-hour proteinuria [2, 7]: significantly reduced
- serum creatinine [2, 7]: significantly reduced
- hypertension (mean blood pressure) ([2]; 10 mg/kg once per week for two weeks, day 28): not significantly affected
- kidney histology (glomerular and tubulointerstitial damage) ([2]; 10 mg/kg once per week for two weeks, week 4): preserved kidney architecture and prevented the glomerular and tubulointerstitial damage
- pathological changes in the kidney ([2]; suramin alone-treated (sham-operated) animals): no obvious pathological changes
- half life [3]: 21 days
- half life ([3]; listed as suramin): at least 21 days
- fibronectin expression in kidney [4, 8]: slight reduction
- α-SMA expression in kidney [4, 8]: slight reduction
- fibronectin expression in kidney [4, 9]: further inhibition
- α-SMA expression in kidney [4, 9]: further inhibition
- collagen 1 expression in kidney ([4]; 5 mg/kg single dose, day 7): observed effect
- fibronectin expression in kidney [4, 10]: complete blockade
- α-SMA expression in kidney [4, 10]: significant, but incomplete, suppression
- collagen 1 expression in kidney ([4]; 10 mg/kg single dose, day 7): greater inhibition
- suppression of fibronectin expression in kidney [4, 11]: approximately 50%
- suppression of α-SMA expression in kidney [4, 11]: approximately 50%
- EGF receptor phosphorylation ([4]; 20 mg/kg single dose, day 7): abolished
- ICAM-1 mRNA expression ([4]; 20 mg/kg single dose, day 7): decreased
- IL-1β mRNA expression ([4]; 20 mg/kg single dose, day 7): decreased
- PDGF receptor phosphorylation ([4]; 20 mg/kg single dose, day 7): abolished
- TGF-β1 mRNA expression reduced to (real-time PCR) ([4]; 20 mg/kg single dose, day 7): 45%
- TGF-β1 type I receptor mRNA expression ([4]; 20 mg/kg single dose, day 7): suppressed its basal expression
- TGF-β type II receptor mRNA expression reduced to (real-time PCR) ([4]; 20 mg/kg single dose, day 7): 94%
- TNF-α mRNA expression ([4]; 20 mg/kg single dose, day 7): decreased
- UUO injury-induced phosphorylation of Smad2 ([4]; 20 mg/kg single dose, day 7): abolished
- UUO injury-induced phosphorylation of Smad3 ([4]; 20 mg/kg single dose, day 7): abolished
- collagen 1 expression in kidney ([4]; 20 mg/kg single dose, day 7): reduced its expression to the basal level
- expression level of total ERK1/2 ([4]; 20 mg/kg single dose, day 7): did not affect
- expression level of total STAT3 ([4]; 20 mg/kg single dose, day 7): did not affect
- expression of total EGF receptor ([4]; 20 mg/kg single dose, day 7): did not have an inhibitory effect
- expression of total PDGF receptor ([4]; 20 mg/kg single dose, day 7): did not have an inhibitory effect
- expression of total Smad2 ([4]; 20 mg/kg single dose, day 7): not affected
- expression of total Smad3 ([4]; 20 mg/kg single dose, day 7): not affected
- leukocyte infiltration (naphthol-AS-D-chloroacetate esterase staining) ([4]; 20 mg/kg single dose, day 7): reduced leukocyte infiltration to basal levels
- morphological lesions and interstitial fibrosis (masson trichrome staining) ([4]; 20 mg/kg single dose, day 7): obvious attenuation
- phosphorylation of ERK1/2 ([4]; 20 mg/kg single dose, day 7): abolished
- phosphorylation of STAT3 ([4]; 20 mg/kg single dose, day 7): abolished
- collagen 1 expression in kidney ([4]; 20 mg/kg single dose, day 21): partially suppressed
- α-SMA expression in kidney ([4]; 20 mg/kg vs 10 mg/kg i.p. single dose, day 7): did not further reduce
- effective doses of suramin ([4]; applicant's UUO and remnant kidney studies): 5 to 10 mg/kg
- phosphorylation of EGFR [5]: complete inhibition
- phosphorylation of ERK1/2 [5]: complete inhibition
- phosphorylation of PDGFR [5]: complete inhibition
- phosphorylation of STAT3 [5]: complete inhibition
- serum-induced fibronectin expression [5]: complete blockade
- serum-induced α-SMA expression [5]: complete blockade
